The record followed here is patent US20130158070A1, “CONJUGATES OF POLYUNSATURATED FATTY ACIDS AND AMINE-CONTAINING COMPOUNDS AND USES THEREOF” (priority 2010, published 2013).

Values joined by “and” are separate entries in the source; they are usually repeats but may differ in a detail not shown here. Equal entries are not always repeated.

The target in one series is T1, COX-2 (Homo sapiens, UniProt P35354).
T1 sequence (P35354 18-604): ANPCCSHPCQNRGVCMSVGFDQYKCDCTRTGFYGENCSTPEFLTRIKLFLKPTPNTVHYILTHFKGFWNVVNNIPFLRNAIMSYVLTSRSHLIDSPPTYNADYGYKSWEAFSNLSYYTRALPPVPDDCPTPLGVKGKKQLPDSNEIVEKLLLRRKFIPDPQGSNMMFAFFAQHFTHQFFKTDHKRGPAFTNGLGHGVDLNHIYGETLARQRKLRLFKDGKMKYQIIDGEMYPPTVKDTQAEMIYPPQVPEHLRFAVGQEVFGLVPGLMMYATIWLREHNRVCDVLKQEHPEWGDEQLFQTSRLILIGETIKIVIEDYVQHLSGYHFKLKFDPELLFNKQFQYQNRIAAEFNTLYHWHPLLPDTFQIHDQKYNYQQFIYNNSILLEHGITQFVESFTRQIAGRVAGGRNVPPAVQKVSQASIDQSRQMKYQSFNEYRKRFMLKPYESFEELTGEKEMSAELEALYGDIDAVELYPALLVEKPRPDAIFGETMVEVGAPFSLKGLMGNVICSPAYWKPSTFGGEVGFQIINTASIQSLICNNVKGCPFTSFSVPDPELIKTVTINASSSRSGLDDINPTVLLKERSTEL
Description: COX-2 inhibition, enzyme immunoassay (EIA). The series is classed as biochemical. The conditions noted are these: ratio of COX-1 IC50 to COX-2 IC50. On the procedure: Exemplary conjugates as described herein were tested in vitro for inhibition of COX-1 and COX-2, using an enzyme immunoassay (EIA), as follows.
Cyclooxygenase catalyzes the first step in the biosynthesis of arachidonic acid (AA) to PGH2. PGF2α, produced from PGH2 by reduction with stannous chloride, is measured by enzyme immunoassay (ACETM competitive EIA).
Stock solutions of test compounds were dissolved in a minimum volume of DMSO. Briefly, to a series of supplied reaction buffer solutions (960 μl, 0.1M Tris-HCl pH 8.0 containing 5 mM EDTA and 2 mM phenol) with either COX-1 or COX-2 (10 μl) enzyme in the presence of heme (10 μl) were added 10 μl of various concentrations of test drug solutions (0.01, 0.1, 1, 10, 50, and 100 μM in a final volume of 1 ml). These solutions were incubated for a period of 5 minutes at 37° C. after which 10 μL of AA (100 μM) solution were added and the COX reaction was stopped by the addition of 50 μl of 1M HCl after 2 minutes. PGF2α, produced from PGH2 by reduction with stannous chloride was measured by enzyme immunoassay.
This assay is based on the competition between PGs and a PG-acetylcholinesterase conjugate (PG tracer) for a limited amount of PG antiserum. The amount of PG tracer that is able to bind to the PG antiserum is inversely proportional to the concentration of PGs in the wells since the concentration of PG tracer is held constant while the concentration of PGs varies. The concentration of the test compound causing 50% inhibition (IC50, μM) was calculated from the concentration-inhibition response curve (duplicate determinations).

The next series deals with T2, hERG channels (Homo sapiens, UniProt Q12809).
T2 construct: expressed in transfected cells; host or cells: Xenopus laevis oocytes injected with hERG cRNA (pSP64 vector, SP6 promoter)
T2 sequence (Q12809 whole entry): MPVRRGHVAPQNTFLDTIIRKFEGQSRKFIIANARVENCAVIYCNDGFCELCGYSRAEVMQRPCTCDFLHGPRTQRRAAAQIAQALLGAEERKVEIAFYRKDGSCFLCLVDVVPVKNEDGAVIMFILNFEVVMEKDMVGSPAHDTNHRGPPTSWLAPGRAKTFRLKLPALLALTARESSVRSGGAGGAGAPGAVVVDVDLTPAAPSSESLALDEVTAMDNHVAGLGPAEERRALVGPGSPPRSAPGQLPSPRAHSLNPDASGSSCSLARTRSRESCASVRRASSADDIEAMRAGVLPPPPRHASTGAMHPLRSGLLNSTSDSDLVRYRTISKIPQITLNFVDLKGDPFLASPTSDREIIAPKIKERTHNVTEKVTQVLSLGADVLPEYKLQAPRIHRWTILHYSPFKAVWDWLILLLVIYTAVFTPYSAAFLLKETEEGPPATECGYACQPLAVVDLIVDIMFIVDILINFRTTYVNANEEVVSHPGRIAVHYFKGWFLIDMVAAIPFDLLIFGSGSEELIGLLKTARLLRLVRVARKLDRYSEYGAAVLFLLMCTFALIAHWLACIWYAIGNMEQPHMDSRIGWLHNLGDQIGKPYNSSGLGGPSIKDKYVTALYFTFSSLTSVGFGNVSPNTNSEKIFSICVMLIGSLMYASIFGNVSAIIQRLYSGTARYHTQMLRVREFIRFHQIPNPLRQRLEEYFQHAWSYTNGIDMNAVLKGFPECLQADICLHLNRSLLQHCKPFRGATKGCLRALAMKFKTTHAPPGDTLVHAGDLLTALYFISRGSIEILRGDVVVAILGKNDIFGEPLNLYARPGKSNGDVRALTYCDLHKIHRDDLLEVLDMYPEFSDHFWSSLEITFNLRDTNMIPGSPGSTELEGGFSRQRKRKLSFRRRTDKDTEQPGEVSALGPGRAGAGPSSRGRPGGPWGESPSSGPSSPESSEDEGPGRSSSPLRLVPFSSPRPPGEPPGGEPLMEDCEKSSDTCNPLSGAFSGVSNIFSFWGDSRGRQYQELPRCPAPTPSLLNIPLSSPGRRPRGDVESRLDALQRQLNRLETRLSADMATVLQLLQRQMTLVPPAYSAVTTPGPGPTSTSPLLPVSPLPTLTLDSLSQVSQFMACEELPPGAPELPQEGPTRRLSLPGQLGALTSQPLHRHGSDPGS
The series can be described thus: hERG channels expressed in Xenopus oocytes, two-electrode voltage clamp. The series is classed as cell-based. Further details: initial current / final current / remaining current / avarage (remaining current): unit not given here. To be noted: for final current: at −130 mV; for final current / remaining current / initial current: individual oocytes; for avarage (remaining current): 5 oocytes; for initial current: at −130 mV after pre-pulse to +40 mV. On the procedure:
The sensitivity of hERG channels to two compounds, MWL001 also termed in the application as MW001 or MWL-001 and MWL002 also termed MW002 or MWL-002, was tested using the Xenopus oocyte expression system and the two-electrode voltage clamp technique. Activity of the compounds was tested at a concentration of 15 μM both from the external and from the internal sides of the membrane.
Clones: hERG gene (gi|26051269) was cloned within pSP64 expression vector (Promega) downstream to a SP6 RNA polymerase promoter. cRNA was prepared following digestion with EcoR I.
Electrophysiology: Xenopus laevis oocytes were isolated, defolliculated and maintained at 17° C. in ND-91 solution (in mM): 91 NaCl, 2 KCl, 1.8 CaCl2, 1 MgCl2, and 5 HEPES, pH 7.5, supplemented with 100 U/ml penicillin, 100 μg/ml streptomycin and 50 μg/ml gentamycin. Oocytes were injected with 20 or 40 nl, containing 7-14 ng of hERG cRNA. Whole-cell currents were measured 2-3 days after injection by the two-electrode voltage clamp technique (TEVC), using a GeneClamp 500B amplifier (Axon Instruments). Data were filtered at 2 kHz and sampled at 5 kHz with Clampex 9.0 software (Axon Instruments). The pipette was filled with 3M KCl and the bath solution contained (in mM): 4 KCl, 96 NaCl, 1 MgCl2, 0.3 CaCl2, 5 HEPES, pH 7.4. For external application of the compounds, stock solutions of either MWL001 or MWL002 were dissolved in the bath solution to a final concentration of 15 μM. During the experiments, bath solution exchange rate was about 2 ml/minutes. At this rate, more than 95% of the bath solution is replaced within 30 seconds. For internal blockade measurements, oocytes were injected with 46 nl of diluted (0.274 mM) compound solutions to achieve a final concentration within the oocyte of 15 μM.
Internal application: Compounds were injected into the oocyte to achieve a final concentration of 15 μM. Injection was made during current measurements and results were collected before and for 5 minutes after the injection. Current levels were determined in 4 seconds intervals at −130 mV, following a pre-pulse to +40 mV (see, Table 4 and FIG. 3).
External application: MWL compounds were applied at 15 μM concentration in the bath solution and current levels were determined in 4 seconds intervals at −130 mV, following a pre-pulse to +40 mV, for 15 minutes (see, Table 4). In addition, measurements were made to determine channel behavior throughout the entire physiological voltage range.
Table 4 presents the data obtained for the effect of MWL compounds on expressed hERG channels in individual oocytes which were either incubated (external) or injected (internal) with MWL compounds. Currents were monitored for 15 or 5 minutes, respectively.
Background: hERG is a cardiac potassium channel; its block is linked to QT prolongation.

Setting [1] is: external application 15 μM in bath, monitored 15 minutes.
Setting [2] is: external application 15 μM, 15 minutes.
Where [3] appears, read: external application, before exposure.
Where [4] appears, read: internal application (injected) 15 μM, 5 minutes.
Where [5] appears, read: internal application (injected) 15 μM, monitored 5 minutes.
Where [6] appears, read: internal application, before injection.

`CCC=CCC=CCC=CCC=CCC=CCC=CCCC(=O)N1CC(O)CC1C(=O)O` (stereo not shown) [MWL001]: the “Ratio (COX ½)” value on COX-2 worked out at 464.11. Also, the final current at hERG channels (setting [1]) was −12.8 and −15.5 and −15.8 and −10.8 and −26.0; on hERG channels (setting [5]) it was −6.5 and −11.1 and −15.5 and −9.5 and −18.5. The results for the “avarage (remaining current)” value at hERG channels (setting [2]) and on hERG channels (setting [4]) were 95.7 and 101.6, respectively. For the same compound, the remaining current on hERG channels (setting [2]) was 100.8 and 91.2 and 98.1 and 100.0 and 88.6; at hERG channels (setting [4]), 95.6 and 101.8 and 112.3 and 100.0 and 98.4. Further, the initial current at hERG channels (setting [3]) was −12.7 and −17.0 and −16.1 and −10.8 and −29.3; at hERG channels (setting [6]), −6.8 and −10.9 and −13.8 and −9.5 and −18.8.

With `CC/C=C\C/C=C\C/C=C\C/C=C\C/C=C\C/C=C\CCC(=O)NCCS(=O)(=O)O` [MWL002, N-docosa-4,7,10,13,16,19-hexaenoyl-taurine], the “Ratio (COX ½)” value at COX-2 came out at 27.86. In addition, the “effect on hERG channel currents” value at hERG channels (15 μM, internal and external exposure) is “no sensitivity”. Moreover, the final current at hERG channels (setting [1]) was −7.1 and −5.0 and −7.2 and −18.0 and −9.0; on hERG channels (setting [5]) it was −13.7 and −6.5 and −11.5 and −7.2 and −8.0. Also, the “avarage (remaining current)” value was determined as 108.2 on hERG channels (setting [2]) and 106.9 on hERG channels (setting [4]). In addition, the remaining current is 91.6 and 109.9 and 120.0 and 102.9 and 116.9 on hERG channels (setting [2]); 109.6 and 103.2 and 101.8 and 107.5 and 112.7 on hERG channels (setting [4]). Moreover, the initial current is −7.8 and −4.6 and −6.0 and −17.5 and −7.7 on hERG channels (setting [3]); −12.5 and −6.3 and −11.3 and −6.7 and −7.1 on hERG channels (setting [6]).
